Measurements published in patent US20260022143A1, “Cyclic Peptide Inhibitors of IL-23” (JANSSEN PHARMACEUTICA NV, priority 2022, published 2026).
Counter-ions that a name gives are not always drawn. Starred links: 1 amine or outer side, 2 acyl side, 3 side chain; linkers in the order of their positions; H or OH if unused. Positions of bridges follow the written chain, without caps; N, C: chain ends. Non-standard residues stand in square brackets, D forms with d. Residues, ends and D or L forms follow the SMILES beside them. Groups on a side chain read outwards from the residue. *: point of attachment. X68 = COCCOCCOCCOCCOCCOCCC(=O)N(CCCC[C@@H](N[*:1])C(=O)[*:2])C(C)=O; Me3N+(CH2)2O(CH2)2O(CH2)2CO = C[N+](C)(C)CCOCCOCCC(=O)*; Trp(7-Me) = Cc1cccc2c(C[C@H](N)C(=O)O)c[nH]c12; X28 = CCCCCCCCCCCCCCCC[N+](C)(C)CCc1cn(CC*)nn1; Dab(NMeAc) = CC(=O)N(C)CC[C@H](N)C(=O)O; γGlu = O=C(O)[C@H](CCC(=O)[*:2])N[*:1]; 2Nal = N[C@@H](Cc1ccc2ccccc2c1)C(=O)O; AEF = NCCOc1ccc(C[C@H](N)C(=O)O)cc1; X19 = C[N+](C)(C)C[C@@H](CC(=O)O)N*; dNMeY = CN[C@H](Cc1ccc(O)cc1)C(=O)O; 3Pal = N[C@@H](Cc1cccnc1)C(=O)O; Myristoyl = CCCCCCCCCCCCCC(=O)*; Lys(Me) = CNCCCC[C@H](N)C(=O)O; NMeK = CN[C@@H](CCCCN)C(=O)O; Pen = CC(C)(S)[C@H](N)C(=O)O; Suc = O=C(CCC(=O)[*:2])[*:1]; αMeK = C[C@](N)(CCCCN)C(=O)O; X70 = C[N+](C)(C)CCO/N=C\C*; Thp = NC1(C(=O)O)CCOCC1; X3 = C[N+](C)(C)CCCCC*; AEEA = NCCOCCOCC(=O)O; Me2NCH2CH2 = CN(C)CC*; Tfa = O=C(C(F)(F)F)*; Sar = CNCC(=O)O

Assay: Exposed Polar Surface Area (EPSA)
Type: physicochemical
Settings: SFC on Chirex 3014 column; sample 1 mM DMSO stock; read-out: EPSA
Summary of the method: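 SFC retention on a Chirex 3014 (S-valine/(R)-1-(α-naphthyl)ethylamine) column at 35 °C, 4 mL/min, 14 MPa outlet, 5–60% methanol/20 mM ammonium formate gradient in CO2. Retention times converted to EPSA (Å²) via linear calibration with 8 standards; samples from 1 mM DMSO stock, run in duplicate.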

SMILES	EPSA
CC(=O)NCCCC[C@@H]1NC(=O)[C@H](Cc2c[nH]c3c(C)cccc23)NC(=O)[C@H]([C@@H](C)O)NC(=O)[C@H](CC(N)=O)NC(=O)[C@@H](NC(=O)[C@@H](CCCCNC(=O)CCOCCOCC[N+](C)(C)C)NC(C)=O)C(C)(C)SSC(C)(C)[C@@H](C(=O)N[C@@H](Cc2ccc(OCCN)cc2)C(=O)N[C@@H](Cc2ccc3ccccc3c2)C(=O)NC2(C(=O)N[C@@H](CCC(=O)O)C(=O)N[C@@H](CC(N)=O)C(=O)N[C@@H](Cc3cccnc3)C(=O)N(C)CC(N)=O)CCOCC2)NC1=O [compound 84] (Ac-[dK](Me3N+(CH2)2O(CH2)2O(CH2)2CO)[Pen]NT[Trp(7-Me)]K(Ac)[Pen][AEF][2Nal][Thp]EN[3Pal][Sar]-NH2; disulfide 2-7)	166 A^2
CC(=O)NCCCC[C@@H]1NC(=O)[C@H](Cc2c[nH]c3c(C)cccc23)NC(=O)[C@H]([C@@H](C)O)NC(=O)[C@H](CC(N)=O)NC(=O)[C@@H](NC(C)=O)C(C)(C)SSC(C)(C)[C@@H](C(=O)N[C@@H](Cc2ccc(OCC[N+](C)(C)C)cc2)C(=O)N[C@@H](Cc2ccc3ccccc3c2)C(=O)NC2(C(=O)N[C@@H](CCCCNC(C)=O)C(=O)N[C@@H](CC(N)=O)C(=O)N[C@@H](Cc3cccnc3)C(=O)N(C)CC(N)=O)CCOCC2)NC1=O [compound 561, MeCO-Pen(3)-N-T-7MeW-K(Ac)-pen(3)-AEF(NMe3)-2Nal-THP-K(Ac)-N-3Pya-Sar-CONH2]	163 A^2
CC(=O)N(C)CCCC[C@@H]1NC(=O)[C@H](Cc2c[nH]c3c(C)cccc23)NC(=O)[C@H]([C@@H](C)O)NC(=O)[C@H](CC(=O)N(C)C)NC(=O)[C@@H](NC(=O)CCOCCOCC[N+](C)(C)C)C(C)(C)SSC(C)(C)[C@@H](C(=O)N[C@@H](Cc2ccc(OC/C=N\OCC[N+](C)(C)C)cc2)C(=O)N[C@@H](Cc2ccc3ccccc3c2)C(=O)NC2(C(=O)N[C@@H](CCCCN(C)C(C)=O)C(=O)N[C@@H](CC(N)=O)C(=O)N[C@@H](Cc3cccnc3)C(=O)N(C)CC(=O)N(C)C)CCOCC2)NC1=O [compound 306, cPEG3aCO-Pen(3)-N(N(Me)2)-T-7MeW-K(NMeAc)-Pen(3)-Y(OZOXlMECh)-2Nal-THP-K(NMeAc)-N-3Pya-Sar-CON(Me)2] ({Me3N+(CH2)2O(CH2)2O(CH2)2CO}-[Pen]D(NMe2)T[Trp(7-Me)][Lys(Me)](Ac)[Pen]Y(X70)[2Nal][Thp][Lys(Me)](Ac)N[3Pal][Sar]-NMe2; disulfide 1-6)	153 A^2
CC(=O)N(C)CC[C@@H]1NC(=O)[C@H](Cc2c[nH]c3c(C)cccc23)NC(=O)[C@H]([C@@H](C)O)NC(=O)[C@H](CC(N)=O)NC(=O)[C@@H](NC(=O)C(F)(F)F)C(C)(C)SSC(C)(C)[C@@H](C(=O)N[C@@H](Cc2ccc(OCCN)cc2)C(=O)N[C@@H](Cc2ccc3ccccc3c2)C(=O)NC2(C(=O)N[C@@H](CCC(=O)N(C)C)C(=O)N[C@@H](CC(N)=O)C(=O)N[C@@H](Cc3cccnc3)C(=O)N(C)CC(N)=O)CCOCC2)NC1=O [compound 75] (Tfa-[Pen]NT[Trp(7-Me)][Dab(NMeAc)][Pen][AEF][2Nal][Thp]E(NMe2)N[3Pal][Sar]-NH2; disulfide 1-6)	157 A^2
CCCCCCCCCCCCCC(=O)N[C@@H](CCC(=O)NCCOCCOCC(=O)NCCOCCOCC(=O)NCCCC[C@@H]1NC(=O)[C@@H](NC(=O)CCOCCOCC[N+](C)(C)C)C(C)(C)SSC(C)(C)[C@@H](C(=O)N[C@@H](Cc2ccc(OCCCCC[N+](C)(C)C)cc2)C(=O)N[C@@H](Cc2ccc3ccccc3c2)C(=O)NC2(C(=O)N[C@@H](CCCCN(C)C(C)=O)C(=O)N[C@@H](CC(N)=O)C(=O)N[C@@H](Cc3cccnc3)C(=O)N(C)CC(=O)N(C)C)CCOCC2)NC(=O)[C@H](CCCCN(C)C(C)=O)NC(=O)[C@H](Cc2c[nH]c3c(C)cccc23)NC(=O)[C@H]([C@@H](C)O)NC1=O)C(=O)O [compound 388, cPEG3aCO-Pen(3)-K(PEG2PEG2gEC14)-T-7MeW-K(NMeAc)-Pen(3)-TMAPF-2Nal-THP-K(NMeAc)-N-3Pya-Sar-CON(Me)2] ({Me3N+(CH2)2O(CH2)2O(CH2)2CO}-[Pen]K([AEEA-AEEA-γGlu-Myristoyl])T[Trp(7-Me)][Lys(Me)](Ac)[Pen]Y(X3)[2Nal][Thp][Lys(Me)](Ac)N[3Pal][Sar]-NMe2; disulfide 1-6)	161 A^2
CCCCCCCCCCCCCC(=O)N[C@@H](CCC(=O)NCCOCCOCC(=O)NCCOCCOCC(=O)NCCCC[C@@H]1NC(=O)[C@@H](NC(=O)CCOCCOCC[N+](C)(C)C)C(C)(C)SSC(C)(C)[C@@H](C(=O)N[C@@H](Cc2ccc(OCCCCC[N+](C)(C)C)cc2)C(=O)N[C@@H](Cc2ccc3ccccc3c2)C(=O)NC2(C(=O)N[C@@H](CCCCN(C)C(C)=O)C(=O)N[C@@H](CC(N)=O)C(=O)N[C@@H](Cc3cccnc3)C(=O)N(C)[C@@H](CCCCNC(=O)COCCOCCNC(=O)COCCOCCNC(=O)CC[C@H](NC(=O)CCCCCCCCCCCCC)C(=O)O)C(N)=O)CCOCC2)NC(=O)[C@H](CCCCNC(C)=O)NC(=O)[C@H](Cc2c[nH]c3c(C)cccc23)NC(=O)[C@H]([C@@H](C)O)NC1=O)C(=O)O [compound 357, cPEG3aCO-Pen(3)-K(PEG2PEG2gEC14)-T-7MeW-K(Ac)-Pen(3)-TMAPF-2Nal-THP-K(NMeac)-N-3Pya-NMeK(PEG2PEG2gEC14)-CONH2] ({Me3N+(CH2)2O(CH2)2O(CH2)2CO}-[Pen]K([AEEA-AEEA-γGlu-Myristoyl])T[Trp(7-Me)]K(Ac)[Pen]Y(X3)[2Nal][Thp][Lys(Me)](Ac)N[3Pal][NMeK]([AEEA-AEEA-γGlu-Myristoyl])-NH2; disulfide 1-6)	181 A^2
COCCOCCOCCOCCOCCOCCNCCOc1ccc(C[C@H](NC(=O)[C@H]2NC(=O)[C@H](CCCCNC(C)=O)NC(=O)[C@H](Cc3c[nH]c4c(C)cccc34)NC(=O)[C@H]([C@@H](C)O)NC(=O)[C@H](CC(N)=O)NC(=O)[C@@H](NC(C)=O)C(C)(C)SSC2(C)C)C(=O)N[C@@H](Cc2ccc3ccccc3c2)C(=O)NC2(C(=O)N[C@@H](CCCCNC(C)=O)C(=O)N[C@@H](CC(N)=O)C(=O)N[C@@H](Cc3cccnc3)C(=O)N(C)CC(N)=O)CCOCC2)cc1 [compound 65]	154 A^2
CC(=O)N(C)CCCC[C@@H]1NC(=O)[C@H](Cc2c[nH]c3c(C)cccc23)NC(=O)[C@H]([C@@H](C)O)NC(=O)[C@H](CC(=O)N(C)C)NC(=O)[C@@H](NC(=O)C(F)(F)F)C(C)(C)SSC(C)(C)[C@@H](C(=O)N[C@@H](Cc2ccc(OCCN(C)C)cc2)C(=O)N[C@@H](Cc2ccc3ccccc3c2)C(=O)NC2(C(=O)N[C@@H](CCCCN(C)C(C)=O)C(=O)N[C@@H](CC(N)=O)C(=O)N[C@@H](Cc3cccnc3)C(=O)N(C)CC(=O)N(C)C)CCOCC2)NC1=O [compound 66, CF3CO-Pen(3)-N(N(Me)2)-T-7MeW-K(NMeAc)-Pen(3)-AEF(N(Me)2)-2Nal-THP-K(NMeAc)-N-3Pya-Sar-CON(Me)2] (Tfa-[Pen]D(NMe2)T[Trp(7-Me)][Lys(Me)](Ac)[Pen]Y(Me2NCH2CH2)[2Nal][Thp][Lys(Me)](Ac)N[3Pal][Sar]-NMe2; disulfide 1-6 (inferred))	138 A^2
CCCCCCCCCCCCCCCC[N+](C)(C)CCc1cn(CCOc2ccc(C[C@H](NC(=O)[C@H]3NC(=O)[C@H](CCCCNC(C)=O)NC(=O)[C@H](Cc4c[nH]c5c(C)cccc45)NC(=O)[C@H]([C@@H](C)O)NC(=O)[C@H](CC(N)=O)NC(=O)[C@@H](NC(C)=O)C(C)(C)SSC3(C)C)C(=O)N[C@@H](Cc3ccc4ccccc4c3)C(=O)NC3(C(=O)N[C@@H](CCCCNC(C)=O)C(=O)N[C@@H](CC(N)=O)C(=O)N[C@@H](Cc4cccnc4)C(=O)N(C)CC(N)=O)CCOCC3)cc2)nn1 [compound 259] (Ac-[Pen]NT[Trp(7-Me)]K(Ac)[Pen]Y(X28)[2Nal][Thp]K(Ac)N[3Pal][Sar]-NH2; disulfide 1-6)	149 A^2
CC(=O)NCCCC[C@@H]1NC(=O)[C@H](Cc2c[nH]c3c(C)cccc23)NC(=O)[C@H]([C@@H](C)O)NC(=O)[C@H](CC(N)=O)NC(=O)[C@@H](NC(C)=O)C(C)(C)SSC(C)(C)[C@@H](C(=O)N[C@@H](Cc2ccc(OCCN)cc2)C(=O)N[C@@H](Cc2ccc3ccccc3c2)C(=O)N[C@@](C)(CCCCN)C(=O)N[C@@H](CCCCNC(C)=O)C(=O)N[C@@H](CC(N)=O)C(=O)N[C@@H](Cc2ccccc2)C(=O)N(C)[C@H](Cc2ccc(O)cc2)C(N)=O)NC1=O [compound 7, MeCO-Pen(3)-N-T-7MeW-K(Ac)-Pen(3)-AEF-2Nal-aMeK-K(Ac)-N-F-NMeDTyr-CONH2] (Ac-[Pen]NT[Trp(7-Me)]K(Ac)[Pen][AEF][2Nal][αMeK]K(Ac)NF[dNMeY]-NH2; disulfide 1-6)	170 A^2
CC(=O)NCCCC[C@@H]1NC(=O)[C@H](Cc2c[nH]c3c(C)cccc23)NC(=O)[C@H]([C@@H](C)O)NC(=O)[C@H](CC(N)=O)NC(=O)[C@@H](NC(C)=O)C(C)(C)SSC(C)(C)[C@@H](C(=O)N[C@@H](Cc2ccc(OCCN)cc2)C(=O)N[C@@H](Cc2ccc3ccccc3c2)C(=O)NC2(C(=O)N[C@@H](CCCCNC(=O)CCC(=O)N[C@H](CC(=O)O)C[N+](C)(C)C)C(=O)N[C@@H](CC(N)=O)C(=O)N[C@@H](Cc3cccnc3)C(=O)N(C)CC(N)=O)CCOCC2)NC1=O [compound 109] (Ac-[Pen]NT[Trp(7-Me)]K(Ac)[Pen][AEF][2Nal][Thp]K([Suc-X19])N[3Pal][Sar]-NH2; disulfide 1-6)	171 A^2
COCCOCCOCCOCCOCCOCCC(=O)N(CCCC[C@H]1NC(=O)[C@H](Cc2c[nH]c3c(C)cccc23)NC(=O)[C@H]([C@@H](C)O)NC(=O)[C@H](CC(N)=O)NC(=O)[C@@H](NC(C)=O)C(C)(C)SSC(C)(C)[C@@H](C(=O)N[C@@H](Cc2ccc(OCCN)cc2)C(=O)N[C@@H](Cc2ccc3ccccc3c2)C(=O)NC2(C(=O)N[C@@H](CCCCNC(C)=O)C(=O)N[C@@H](CC(N)=O)C(=O)N[C@@H](Cc3cccnc3)C(=O)N(C)CC(N)=O)CCOCC2)NC1=O)C(C)=O [compound 78] (Ac-[Pen]NT[Trp(7-Me)][X68][Pen][AEF][2Nal][Thp]K(Ac)N[3Pal][Sar]-NH2; disulfide 1-6)	157 A^2
